Test results published in patent US20260240975A1, “VALIDATED HPV16-DERIVED S[…]” (Deutsches Krebsforschungszentrum Stiftung des öffentlichen …, priority 2023, published 2026).

What follows are substances tested on short-term antigen-specific T cell lines generated from PBMCs (assay: Interferon-γ ELISpot assay on short-term T cell lines). Conditions: HLA restriction A01.
Type: cell-based, human
Parameters: key: +: ELISPOT: Immungenicity of the peptide shown by IFN-gamma ELISPOT analysis; * Highlights data from published resources; +*: * Highlights data from published resources

| Substance | ELISpot |
| --- | --- |
| 6 (DLQPETTDLY; Human papillomavirus 16) [compound 6] | + |
| 8 (SKISEYRHYCY; Human papillomavirus 16) [compound 8] | + |
| 112 (TTDLYCYEQL; Human papillomavirus 16) [compound 112] | + |
| 9 (SEYRHYCYSLY; Human papillomavirus 16) [compound 9] | + |
| 5 (EYRYYCYSLY; Human papillomavirus 16) [compound 5] | + |
| 10 (ETTDLYCY; Human papillomavirus 16) [compound 10] | + |
| 4 (YGVCDKCLKFY; Human papillomavirus 16) [compound 4] | + |
| 113 (SEYRHYCY; Human papillomavirus 16) [compound 113] | + |
| 7 (TTDLYCYEQ; Human papillomavirus 16) [compound 7] | + |
| 3 (TIHDIILQCVY; Human papillomavirus 16) [compound 3] | + |
| 114 (IHEIILECVY; Human papillomavirus 16) [compound 114] | + |

Same assay, conditions: HLA restriction A02

| Substance | ELISpot |
| --- | --- |
| 28 (KLPQLCTELQT; Human papillomavirus 16) [compound 28] | + |
| 24 (LLMGTLGIVC; Human papillomavirus 16) [compound 24] | + |
| 29 (ELQTTIHDI; Human papillomavirus 16) [compound 29] | + |
| 32 (TLHEYMLDLQP; Human papillomavirus 16) [compound 32] | + |

Same assay, conditions: HLA restriction A03

| Substance | ELISpot |
| --- | --- |
| 52 (KFYSKISEYR; Human papillomavirus 16) [compound 52] | + |
| 54 (TTLEQQYNK; Human papillomavirus 16) [compound 54] | + |
| 46 (GIVCPICSQK; Human papillomavirus 16) [compound 46] | + |
| 49 (AVCDKCLK; Human papillomavirus 16) [compound 49] | + |
| 56 (LIRCINCQK; Human papillomavirus 16) [compound 56] | + |
| 58 (KQRFHNIRGR; Human papillomavirus 16) [compound 58] | + |
| 57 (RCINCQKPLCP; Human papillomavirus 16) [compound 57] | + |
| 116 (GTTLEQQYNK; Human papillomavirus 16) [compound 116] | + |
| 51 (KFYSKISEY; Human papillomavirus 16) [compound 51] | + |
| 117 (RHYCYSLY; Human papillomavirus 16) [compound 117] | + |
| 36 (HLDKKQRFH; Human papillomavirus 16) [compound 36] | + |
| 50 (KCLKFYSKI; Human papillomavirus 16) [compound 50] | + |
| 47 (MFQDPQERPRK; Human papillomavirus 16) [compound 47] | + |

Same assay, conditions: HLA restriction A11

| Substance | ELISpot |
| --- | --- |
| 45 (VCDKCLKFYSK; Human papillomavirus 16) [compound 45] | + |
| 59 (LGIVCPICSQK; Human papillomavirus 16) [compound 59] | + |
| 48 (YAVCDKCLKFY; Human papillomavirus 16) [compound 48] | + |
| 35 (IILECVYCK; Human papillomavirus 16) [compound 35] | + |
| 40 (AFRDLCIVYR; Human papillomavirus 16) [compound 40] | + |
| 39 (FAFRDLCIVYR; Human papillomavirus 16) [compound 39] | + |
| 44 (AVCDKCLKFYS; Human papillomavirus 16) [compound 44] | + |
| 41 (IVYRDGNPY; Human papillomavirus 16) [compound 41] | + |
| 42 (NPYAVCDKCLK; Human papillomavirus 16) [compound 42] | + |
| 55 (DLLIRCINCQK; Human papillomavirus 16) [compound 55] | + |

Same assay, conditions: HLA restriction A24

| Substance | ELISpot |
| --- | --- |
| 67 (DRAHYNIVTF; Human papillomavirus 16) [compound 67] | + |
| 75 (AHYNIVTF; Human papillomavirus 16) [compound 75] | + |
| 119 (HYNIVTFC; Human papillomavirus 16) [compound 119] | + |
| 63 (PYAVCDKCLKF; Human papillomavirus 16) [compound 63] | + |
| 73 (HLDKKQRFHNI; Human papillomavirus 16) [compound 73] | + |
| 66 (PDRAHYNIVTF; Human papillomavirus 16) [compound 66] | + |
| 68 (HYNIVTFCC; Human papillomavirus 16) [compound 68] | + |
| 72 (YSLYGTTL; Human papillomavirus 16) [compound 72] | + |
| 51 (KFYSKISEY; Human papillomavirus 16) [compound 51] | + |
| 74 (DKKQRFHN; Human papillomavirus 16) [compound 74] | + |
| 71 (HYCYSLYGTTL; Human papillomavirus 16) [compound 71] | + |

Same assay, conditions: HLA restriction B07

| Substance | ELISpot |
| --- | --- |
| 76 (RPRKLPQL; Human papillomavirus 16) [compound 76] | + |
| 81 (EPDRAHYNIV; Human papillomavirus 16) [compound 81] | + |
| 124 (LPQLCTELQT; Human papillomavirus 16) [compound 124] | + |
| 122 (RPRKLPDLCT; Human papillomavirus 16) [compound 122] | + |
| 123 (CPDEKQRHL; Human papillomavirus 16) [compound 123] | + |
| 84 (RCMSCCRSSR; Human papillomavirus 16) [compound 84] | + |
| 82 (RPRKLPQLCT; Human papillomavirus 16) [compound 82] | + |
| 78 (RPRKLPQLCTE; Human papillomavirus 16) [compound 78] | + |
| 80 (NIRGRWTGRCM; Human papillomavirus 16) [compound 80] | + |

Same assay, conditions: HLA restriction B15

| Substance | ELISpot |
| --- | --- |
| 126 (KISEYRHY; Human papillomavirus 16) [compound 126] | + |
| 99 (AVCDKCLKF; Human papillomavirus 16) [compound 99] | + |
| 95 (YRHYCYSVY; Human papillomavirus 16) [compound 95] | + |
| 107 (KQRHLDKKQRF; Human papillomavirus 16) [compound 107] | + |
| 104 (SEYRHYCY; Human papillomavirus 16) [compound 104] | + |
| 129 (FYSKISEY; Human papillomavirus 16) [compound 129] | + |
| 105 (QQYNKPLCDL; Human papillomavirus 16) [compound 105] | + |
| 110 (GQAEPDRAH; Human papillomavirus 16) [compound 110] | + |
| 9 (SEYRHYCYSLY; Human papillomavirus 16) [compound 9] | 1 |
| 94 (LCIVYRDGNPY; Human papillomavirus 16) [compound 94] | + |
| 127 (RGRWTGRCM; Human papillomavirus 16) [compound 127] | + |
| 96 (LLRREVYDFAF; Human papillomavirus 16) [compound 96] | + |
| 85 (KQQLLRREVY; Human papillomavirus 16) [compound 85] | + |
| 97 (LRREVYDFAF; Human papillomavirus 16) [compound 97] | + |
| 88 (GQAEPDRAHY; Human papillomavirus 16) [compound 88] | + |
| 93 (FAFRDLCIVY; Human papillomavirus 16) [compound 93] | + |
| 108 (KQRFHNIRGRW; Human papillomavirus 16) [compound 108] | + |
| 128 (AGQAEPDRAHY; Human papillomavirus 16) [compound 128] | + |
| 98 (IVYRDGNPYAV; Human papillomavirus 16) [compound 98] | + |
| 106 (CQKPLCPEE; Human papillomavirus 16) [compound 106] | + |
| 86 (AFRDLCIVY; Human papillomavirus 16) [compound 86] | + |
| 89 (QQLLRREVY; Human papillomavirus 16) [compound 89] | + |
| 109 (TLHEYMLDL; Human papillomavirus 16) [compound 109] | + |
| 101 (FYSKISEY; Human papillomavirus 16) [compound 101] | + |
| 100 (CLKFYSKISEY; Human papillomavirus 16) [compound 100] | + |
| 80 (NIRGRWTGRCM; Human papillomavirus 16) [compound 80] | + |

Each substance was assayed on peptide-specific T cell cultures (assay: T cell phenotyping and intracellular cytokine staining (flow cytometry)). Conditions: HLA restriction A01; IFN-gamma, TNF-alpha.
Type: cell-based, human
Parameters: key: +: cytokine: Immunogenicity of the peptide shown by intracellular cytokine staining (IFN-gamma, TNF-alpha)

| Substance | cytokine |
| --- | --- |
| 6 (DLQPETTDLY; Human papillomavirus 16) [compound 6] | + |
| 5 (EYRYYCYSLY; Human papillomavirus 16) [compound 5] | + |
| 4 (YGVCDKCLKFY; Human papillomavirus 16) [compound 4] | + |
| 7 (TTDLYCYEQ; Human papillomavirus 16) [compound 7] | + |
| 3 (TIHDIILQCVY; Human papillomavirus 16) [compound 3] | + |

Same assay, conditions: HLA restriction A02; IFN-gamma, TNF-alpha

| Substance | cytokine |
| --- | --- |
| 24 (LLMGTLGIVC; Human papillomavirus 16) [compound 24] | + |

Same assay, conditions: HLA restriction A03; IFN-gamma, TNF-alpha

| Substance | cytokine |
| --- | --- |
| 46 (GIVCPICSQK; Human papillomavirus 16) [compound 46] | + |
| 117 (RHYCYSLY; Human papillomavirus 16) [compound 117] | 1 |

Same assay, conditions: HLA restriction A11; IFN-gamma, TNF-alpha

| Substance | cytokine |
| --- | --- |
| 45 (VCDKCLKFYSK; Human papillomavirus 16) [compound 45] | + |
| 40 (AFRDLCIVYR; Human papillomavirus 16) [compound 40] | + |
| 39 (FAFRDLCIVYR; Human papillomavirus 16) [compound 39] | + |
| 44 (AVCDKCLKFYS; Human papillomavirus 16) [compound 44] | + |
| 41 (IVYRDGNPY; Human papillomavirus 16) [compound 41] | + |
| 42 (NPYAVCDKCLK; Human papillomavirus 16) [compound 42] | + |
| 55 (DLLIRCINCQK; Human papillomavirus 16) [compound 55] | + |

Same assay, conditions: HLA restriction A24; IFN-gamma, TNF-alpha

| Substance | cytokine |
| --- | --- |
| 67 (DRAHYNIVTF; Human papillomavirus 16) [compound 67] | + |
| 66 (PDRAHYNIVTF; Human papillomavirus 16) [compound 66] | + |
| 68 (HYNIVTFCC; Human papillomavirus 16) [compound 68] | + |
| 71 (HYCYSLYGTTL; Human papillomavirus 16) [compound 71] | + |

Same assay, conditions: HLA restriction B07; IFN-gamma, TNF-alpha

| Substance | cytokine |
| --- | --- |
| 76 (RPRKLPQL; Human papillomavirus 16) [compound 76] | + |
| 81 (EPDRAHYNIV; Human papillomavirus 16) [compound 81] | + |
| 122 (RPRKLPDLCT; Human papillomavirus 16) [compound 122] | + |
| 78 (RPRKLPQLCTE; Human papillomavirus 16) [compound 78] | + |
| 80 (NIRGRWTGRCM; Human papillomavirus 16) [compound 80] | + |

Same assay, conditions: HLA restriction B15; IFN-gamma, TNF-alpha

| Substance | cytokine |
| --- | --- |
| 95 (YRHYCYSVY; Human papillomavirus 16) [compound 95] | + |
| 85 (KQQLLRREVY; Human papillomavirus 16) [compound 85] | + |
| 88 (GQAEPDRAHY; Human papillomavirus 16) [compound 88] | + |
| 108 (KQRFHNIRGRW; Human papillomavirus 16) [compound 108] | + |
| 86 (AFRDLCIVY; Human papillomavirus 16) [compound 86] | + |
